From PMC6033896, “Discovery of Mcl-1 inhibitors from integrated high throughput and virtual screening” (Scientific Reports, 2018)

Columns and labels:
Mcl-1 protein [1] = molecular target: T1, Mcl-1 protein (Homo sapiens, UniProt Q07820); experiment: TR-FRET binding assay with Bid-Dy647 peptide; conditions: 10 nM Mcl-1, 10 nM Bid-Dy647
T1 construct: human Mcl-1 (residues 171–323); His tag (pHis-TEV vector) (N, cleaved yes); made in house; host or cells: E. coli BL21 (DE3)
Procedure: TR-FRET was performed using black 384-well plates in an Envision Multilabel plate reader (Perkin Elmer Life Sciences). To each well, a mixture of 10 nM Bid-Dy647 peptide (79–99), 10 nM Mcl-1 protein, and Europium-anti-His antibody were added to a final volume of 25 μl in the assay buffer (20 mM potassium phosphate, pH 7.5; 50 mM NaCl, 1 mM EDTA and 0.05% Pluronic F68). The TR-FRET signals were measured with an Envision Multilabel plate reader after 2 h of incubation. (Ex 340 nm, Em615 nm and Em665 nm) and expressed as FRET signal ratio (F665 nm/[…] * 104)

Mcl-1 protein [2] = molecular target: T1, Mcl-1 protein; experiment: FP-based competitive binding assay with fluorescent labelled Bid BH3 peptide; conditions: for Ki: calculated from FP IC50; for IC50: competition with fluorescent Bid probe 2 nM, 20 nM Mcl-1 for purchased compounds, 10 nM for synthesized library
Procedure: (§1) FP-based binding assays were developed and optimized to determine the binding affinities of inhibitors to the recombinant Mcl-1, Bcl-2, Bcl-xL, and Bfl-1, proteins. […] The fluorescent Bid probe was fixed at 2 nM for all assays, except for Bfl-1, where 1 nM was used. 5 μL of the tested compound in DMSO and 120 μL of protein/probe complex in the assay buffer were added to assay plates (Corning #3792), incubated at room temperature for 3 h, and the polarization values (mP) were measured at an excitation wavelength of 485 nm and an emission wavelength of 530 nm using the plate reader Synergy H1 Hybrid, BioTek. IC50 values were determined by nonlinear regression fitting of the competition curves (GraphPad Prism 6.0 Software). The Ki values were calculated as described previously.
(§2) 1. List of compounds purchased from vendors
(§3) Compound s 5, 6, 7, 8 and S3, S4, S5, S6 S7, S8, S9, S10, S17 were purchased from […]
(§4) Compound s 9, 10, 11 and S11, S12, S13 were purchased from I nterbioscreen […]
His-tagged proteins containing human Mcl-1 (residues 171–323), the isoform 2 construct of the human Bcl-2 [Bcl2-2 construct for protein production starts with the Bcl2 sequence of 1-34 a a, followed by the Bcl-xL seq uence of 35-50 aa, and ends with the Bcl-2 sequenc e of 92-202aa.], Bcl-xL (Human Bcl-xL protein, which has an internal deletion for the 45 -85 amino acid residues and a C -terminal truncation for the amino acid residues 212-233), and Bf l-1 (residues 1-151), were expres sed from the pHis -TEV vector (a modified pET vector) in E. coli BL21 (DE3) cells. Cells were grown at 37 °C in 2×YT containing antibiotics to an OD600 density of 1.5, 1 and 0.8 for Mcl-1, Bcl-xL and Bcl-2 respectively. Protein expression wa s induced by 0 .4 mM IPTG at 20 °C overnight for all proteins except for Bf l-1 which was e xpressed at 3 7 °C for four hours . Cells were lysed in 20 mM HEPES pH 7.5, 200 mM NaCl, 0.1% βME with Leupeptin/Aprotinin (Mcl-1), 25mM Tris pH 8.5, 200mM NaCl (Bcl-2), 50mM Tris pH 7.5, 200 mM NaCl (Bcl-xL) and 50 mM Tris pH 8, 500 mM NaCl, 0. 1% βME with Leupeptin/Aprotinin (Bf l-1). All […]
proteins were purified from the soluble fraction using Ni-NTA resin (QIAGEN), following the manufacturer’s instructions. For purification of TEV-cleaved protein, the amino-terminal His tag was cleaved by incubation with TEV protease and the protein was further purified by anion exchange (Source Q) and gel filtration chromatography (Superdex 75, Amersham Biosciences) in 20mM HEPES pH 7.0, 50 mM NaCl (Mcl-1), […]
NaCl, 0.1% βME (Bcl-xL) and 25 mM Tris pH 7.5, 150 mM NaCl, 25% Glycerol, 0.1% βME ( Bf l-1). His-tagged Mcl-1 protein was used for TR-FRET assay and HSQC-NMR.
His-TEV cleaved Mcl-1, Bcl-2, Bcl-xL, and Bf l-1 were used in fluorescent polarization and surface plasmon resonance binding assays.
Mutant Mcl-1 protein wa s prepared by the QuikChange site -directed mutagenesi s method (Stratagene) , where Arg263 was mutated to Ala. The R263A expression pla smid was transformed into Rosetta2 DE3 cells and purified by the same method as the wildtype protein. Cultures were grown to an OD 600 of 1. 5 at 37 °C in Terrific Broth, induced with 0. 4 mM IPTG, and express ed overnight at 20 °C. The follow-up purification was performed the same way as was for Mcl-1 wild-type recombinant

Bfl-1 = molecular target: T2, Bfl-1 (Homo sapiens, UniProt Q16548); experiment: FP-based competitive binding assay with FAM-Bid; conditions: for IC50: Bfl-1
T2 construct: Bf l-1 (residues 1-151); His tag (pHis-TEV vector) (N, cleaved yes); made in house; host or cells: E. coli BL21 (DE3)
T2 sequence (Q16548 1-151): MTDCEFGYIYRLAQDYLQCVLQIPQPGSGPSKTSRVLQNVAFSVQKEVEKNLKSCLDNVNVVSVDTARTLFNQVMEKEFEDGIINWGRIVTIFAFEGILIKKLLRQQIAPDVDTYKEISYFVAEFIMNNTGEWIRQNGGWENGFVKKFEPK
Procedure: as §1, §2, §3, §4
(§5) His-tagged proteins containing human Mcl-1 (residues 171–323), the isoform 2 construct of the human Bcl-2 [Bcl2-2 construct for protein production starts with the Bcl2 sequence of 1-34 a a, followed by the Bcl-xL seq uence of 35-50 aa, and ends with the Bcl-2 sequenc e of 92-202aa.], Bcl-xL (Human Bcl-xL protein, which has an internal deletion for the 45 -85 amino acid residues and a C -terminal truncation for the amino acid residues 212-233), and Bf l-1 (residues 1-151), were expres sed from the pHis -TEV vector (a modified pET vector) in E. coli BL21 (DE3) cells. Cells were grown at 37 °C in 2×YT containing antibiotics to an OD600 density of 1.5, 1 and 0.8 for Mcl-1, Bcl-xL and Bcl-2 respectively. Protein expression wa s induced by 0 .4 mM IPTG at 20 °C overnight for all proteins except for Bf l-1 which was e xpressed at 3 7 °C for four hours . Cells were lysed in 20 mM HEPES pH 7.5, 200 mM NaCl, 0.1% βME with Leupeptin/Aprotinin (Mcl-1), 25mM Tris pH 8.5, 200mM NaCl (Bcl-2), 50mM Tris pH 7.5, 200 mM NaCl (Bcl-xL) and 50 mM Tris pH 8, 500 mM NaCl, 0. 1% βME with Leupeptin/Aprotinin (Bf l-1). All

Bcl-xL = molecular target: T3, Bcl-xL (Homo sapiens, UniProt Q07817, DEL45-85); experiment: FP-based competitive binding assay with FAM-Bid; conditions: FP
T3 construct: His tag (pHis-TEV vector) (N, cleaved yes); made in house; host or cells: E. coli BL21 (DE3)
Procedure: as §1, §2, §3, §4, §5

Bcl-2 = molecular target: T4, Bcl-2 (Homo sapiens, UniProt P10415, DEL35-91/INS34DVEENRTEAPEGTESE); experiment: FP-based competitive binding assay with FAM-Bid; conditions: FP
T4 construct: His tag (pHis-TEV vector) (N, cleaved yes); made in house; host or cells: E. coli BL21 (DE3)
Procedure: as §1, §2, §3, §4, §5

Mcl-1/Noxa interaction = system: Mcl-1/Noxa interaction; set-up: method as in PubChem BioAssay AID 1417; conditions: Dose Response Confirmation for Mcl-1/Noxa Interaction Inhibitors; ref PubChem BioAssay AID 1417; cited from earlier work
Mcl-1 protein [3] = molecular target: T1, Mcl-1 protein; experiment: SPR-based solution competitive binding assay, immobilized biotin-labelled Bim BH3 peptide; conditions: Mcl-1 20 nM; competition with immobilized Bim BH3 peptide
Procedure: The solution competitive SPR-based assay was performed on Biacore 2000 in a similar way as was already reported. Briefly, N terminal biotin-labelled Bim BH3 peptide (141–166 amino acids) was immobilized on streptavidin (SA) chip giving a density of 800 RU (Response Units). The pre-incubated Mcl-1 protein (20 nM) with tested small-molecule inhibitors for at least 30 min was injected over the surfaces of the chip using assay buffer HBS-P (GE, #BR100368). Response units were measured at 15 s in the dissociation phase, and IC50 values were determined by nonlinear least-squares analysis using GraphPad Prism 6.0 software.

[4] = system: Eµ-myc lymphoma cells overexpressing Bcl-2; experiment: Eµ-myc lymphoma cell viability, flow cytometry; format: cell-based, mice; conditions: increasing concentrations
Procedure: (§6) MEF cells, including wild-type, Bax/Bak double knockout, Bax−/− single knockout, and Bak−/− single knockout were tested and characterized (Supplementary Fig. S3). The cells were cultured in DMEM (Life Technologies), supplemented with 10% fetal bovine serum (FBS) (Thermo Scientific HyClone) and 1% Penicillin/streptomycin solution (Life Technologies). The retrovirally transduced lymphoma cells isolated from Eμ-myc transgenic mice were provided by Ricky W. Johnstone at the University of Melbourne, Melbourne, Australia and cultured as previously described[37],[65].
(§7) The Mcl-1, Bcl-2, and Bcl-xL retroviral transduced lymphoma Eμ-myc cells were seeded in 12-well plates at 0.5 × 10^6 cells/well. […] The cells were harvested and stained with violet LIVE/DEAD Fixable Dead Cell Stain Kit (Invitrogen) according to manufacturer’s protocol. The percentage of fluorescent positive cells was determined by flow cytometry and calculated using WinList 3.0.

[5] = system: Eµ-myc lymphoma cells overexpressing Bcl-xL; experiment: Eµ-myc lymphoma cell viability, flow cytometry; format: cell-based, mice; conditions: increasing concentrations, 15 h
Procedure: as §6, §7

[6] = system: Eµ-myc lymphoma cells overexpressing Mcl-1; experiment: Eµ-myc lymphoma cell viability, flow cytometry; format: cell-based, mice; conditions: increasing concentrations, 15 h
Procedure: as §6, §7

wild-type MEFs = experiment: MEF cell death, propidium iodide flow cytometry; format: cell-based, mouse; conditions: increasing concentrations, 15 h
Procedure: as §6
(§8) MEFs were seeded in 24-well plates at 0.5 × 10^5 cells/well, left to adhere for 5 hours and then treated for 15 hours with increasing concentrations of the compounds. The cells were harvested, washed with phosphate-buffered saline (PBS) and stained with 0.025 mg/ml propidium iodide (MP Biomedicals). The percentage of the propidium iodide positive population was determined by flow cytometry and calculated using WinList 3.0.

[7] = system: Bax−/− single knockout MEFs; experiment: MEF cell death, propidium iodide flow cytometry; format: cell-based, mouse; conditions: increasing concentrations, 15 h
Procedure: as §6, §8

[8] = system: Bax/Bak double knockout (DKO) MEFs; experiment: MEF cell death, propidium iodide flow cytometry; format: cell-based, mouse; conditions: increasing concentrations, 15 h
Procedure: as §6, §8

[9] = system: Bak−/− single knockout MEFs; experiment: MEF cell death, propidium iodide flow cytometry; format: cell-based, mouse; conditions: increasing concentrations, 15 h
Procedure: as §6, §8

T1 sequence (Q07820 171-323): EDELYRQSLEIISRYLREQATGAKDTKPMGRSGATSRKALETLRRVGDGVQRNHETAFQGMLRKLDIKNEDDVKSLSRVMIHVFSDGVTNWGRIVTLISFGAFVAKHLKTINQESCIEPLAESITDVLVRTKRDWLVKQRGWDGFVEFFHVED
T4 sequence (P10415 with tags, fused parts or gaps INS34DVEEN/V35R/G36T/A37E/P40E/DEL42-87/P88T/V89E/P90S/P91E): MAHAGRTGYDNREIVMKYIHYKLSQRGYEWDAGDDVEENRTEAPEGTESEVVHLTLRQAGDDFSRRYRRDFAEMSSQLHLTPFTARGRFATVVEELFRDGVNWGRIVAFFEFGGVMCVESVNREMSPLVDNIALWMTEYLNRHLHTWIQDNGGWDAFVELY
T3 sequence (Q07817 with tags, fused parts or gaps DEL45-85 limits assumed): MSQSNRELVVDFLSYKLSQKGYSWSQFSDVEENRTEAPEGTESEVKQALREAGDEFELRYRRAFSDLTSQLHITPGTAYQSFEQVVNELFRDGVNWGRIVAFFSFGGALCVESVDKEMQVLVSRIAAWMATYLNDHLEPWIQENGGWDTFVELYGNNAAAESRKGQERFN

SMILES | Ki (Mcl-1 protein [2]) | IC50 (Mcl-1 protein [2]) | IC50 (Bfl-1) | IC50 (Mcl-1/Noxa interaction) | IC50 (Mcl-1 protein [3]) | effect on Eµ-myc cells overexpressing Bcl-2 [4] | killing of Eµ-myc cells overexpressing Mcl-1 [6] | also measured
c1ccc(CCCSc2nnc(-c3ccco3)c(-c3ccco3)n2)cc1 [Compound 42] | 400 ± 100 nM | 1500 ± 300 nM | 11400 ± 100 nM | – | – | – | – | IC50 (Mcl-1 protein [1]): 2400 ± 100 nM; Ki (Bfl-1; FP): 1600 ± 100 nM; IC50 (Bcl-xL): > 100000 nM; Ki (Bcl-xL): > 20000 nM; IC50 (Bcl-2): > 100000 nM; Ki (Bcl-2): > 25000 nM
CCOc1ccc(C(=O)Nc2cc(NC(=O)c3ccc(OCC)c(Cl)c3)cc(C(=O)O)c2)cc1Cl [Compound 3] | – | 9600 ± 2500 nM | 2500 ± 200 nM | 14300 nM | 21300 ± 5400 nM | – | – | –
Cc1c(-c2c(-c3ccc(F)o3)sc3ncnc(OC(Cc4ccccc4OCc4ccnn4CC(F)(F)F)C(=O)O)c23)ccc(OCCN2CCN(C)CC2)c1Cl (centres unmarked) [Compound S63845, reference compound] | – | – | – | – | – | sparing | selectively killing | effect on Eµ-myc cells overexpressing Bcl-xL [5]: sparing; cell death in wild-type MEFs (wild-type MEFs): induces cell death; cell death in Bax−/− MEFs [7]: not; cell death in Bax/Bak DKO MEFs [8]: not; cell death in Bak−/− MEFs [9]: not
Cc1ccc2nc(N3C(=O)C(O)=C(C(=O)c4cc5ccccc5o4)C3c3cccs3)sc2c1 (centres unmarked) [Compound 4] | – | 2400 ± 1100 nM | – | 2400 nM | 4500 ± 300 nM | – | – | –
CC(C)c1ccc(NC(=O)CSc2nnc(-c3ccco3)c(-c3ccco3)n2)cc1 [Compound 29] | 500 ± 200 nM | 2300 ± 700 nM | – | – | 11600 ± 1100 nM | selectivity | killing | –
CC(C)c1cccc(NC(=O)CSc2nnc(-c3ccco3)c(-c3ccco3)n2)c1 [Compound 38] | 600 ± 100 nM | 2600 ± 300 nM | – | – | – | selectivity | killing | –
